According to patent publication US4593047A, “Process for the preparation of 3-trifluoromethyl-and 2,5-dimethyl-4'-hdyroxy-α-ethyl-benzhydrol, and pharmaceutical compositions containing them” (Richter Gedeon Vegyeszeti Cyar RT, priority 1982, dated 1986):

Experiments:
[1] = tested on: enzyme system of liver; conditions: cited from earlier work
[2] = Ethanolic narcosis period test (Table 1, 1 hour oral pretreatment); assay type: in vivo, Hann.-Wistar rats; conditions: 1 hour before ethanol i.p., n=10, control = 100 ± 7.9
Method: (§1) The effect of the compounds according to the invention on ethanolic narcosis period was tested on Hann.-Wistar rats of both sexes, each weighing 160 to 180 g. The animals were fasted for 16 hours prior to treatment and tests were performed on groups of 10. The animals were treated with various doses of the test compounds orally. One hour after treatment the rats were administered a […]. dose of ethanol intraperitoneally, and their narcosis period was measured from the elapse of the righting reflex until a spontaneous correction of the body position. The mean value of the narcosis period and the percentage difference related to the control were calculated. The results are given in Table 1. x±S.E.=mean value±standard error n=number of animals The control group was treated with placebo and a 3.5 mg./kg. dose of ethanol. Narcosis period of the control: 87.4±6.91 (x±S.E.) min.

[3] = Ethanolic narcosis period as a function of the pretreatment period (Table 2); assay type: in vivo, Hann.-Wistar rats; conditions: 40.0 mg./kg. oral, n=10
Method: as §1, with “calculated.” for “calculated. The results are given in Table 1. x±S.E.=mean value±standard error n=number of animals The control group was treated with placebo and a 3.5 mg./kg. dose of ethanol. Narcosis period of the control: 87.4±6.91 (x±S.E.) min.”
There was examined the effect of a 40.0 mg./kg. dose of the above test compound on the ethanolic narcosis period as a function of the pretreatment-period, following the test procedure described above.

[4] = Acute toxicity, single oral dose, 14 days observation; assay type: in vivo
Method: The acute toxicity of the compound A was determined on Hann.-Wistar rats of both sexes, each weighing 160 to 180 g. in groups of 10. The animals were administered a single 2000 mg./kg. oral dose of the test compound, and then observed for 14 days.

[5] = in vivo; cited from earlier work
[6] = in vivo; cited from earlier work; remark: listed apart in the source
[7] = cited from earlier work

For CCC(O)(c1ccccc1)c1cc(C)ccc1C (stereo not drawn) [2,5-dimethyl-α-ethyl-benzhydrol], the “Inducing effect on the enzyme system of liver” value [1] is listed as “shows a similar activity”.
For CCC(O)(c1ccccc1)c1cccc(C(F)(F)F)c1 (stereo not drawn) [3-trifluoromethyl-α-ethyl-benzhydrol], the “Inducing effect on the enzyme system of liver” value [1] is given as “has an inducing effect on the enzyme system of liver”.
In the case of CCC(O)(c1ccc(O)cc1)c1cccc(C(F)(F)F)c1 (stereo not drawn) [A, 3-trifluoromethyl-4'-hydroxy-α-ethyl-benzhydrol], the “Ethanolic narcosis period (Control ± S.E. %)” value ([2]; 40.0 mg./kg. oral) is reported as 53 ± 5.8%, the “Ethanolic narcosis period (Control ± S.E. %)” value ([2]; 80.0 mg./kg. oral) is reported as 62 ± 5.1% and the “Narcosis period, treated” value ([3]; pretreatment 0.5 hours, control 87.2 ± 6.23) is reported as 54.1 ± 3.49. The “Narcosis period, % difference from the control” value (from here on “Narcosis period, % difference”) ([3]; pretreatment 0.5 hours) was -38%, the “Narcosis period, treated” value ([3]; pretreatment 1.0 hours, control 85.1 ± 4.91) was 45.1 ± 2.30 and the “Narcosis period, % difference” value ([3]; pretreatment 1.0 hours) was -47%. For the same compound, the “Narcosis period, treated” value ([3]; pretreatment 2.0 hours, control 85.5 ± 9.97) was 29.9 ± 5.08, the “Narcosis period, % difference” value ([3]; pretreatment 2.0 hours) was -65% and the “Narcosis period, treated” value ([3]; pretreatment 3.0 hours, control 83.4 ± 8.46) was 75.1 ± 4.51. For the same compound, the “Narcosis period, % difference” value ([3]; pretreatment 3.0 hours) was -10%, the Toxicity ([4]; oral, single dose) was “toxicity is low” and the LD50 at 336 h ([4]; rat, in vivo, oral, single dose, 14 days observation) was > 2000 mg/kg. It also gave a mortality at 336 h ([4]; rat, in vivo, single 2000 mg./kg. oral dose, 14 days observation, read-out: Animals perished) of 40%.
In the case of N[C@@H](CS)C(=O)O [L-cysteine, reference compound], the “Ethanolic narcosis period (Control ± S.E. %)” value ([2]; 500.0 mg./kg. oral) is listed as 63 ± 4.2%, the “Ethanolic narcosis period (Control ± S.E. %)” value ([2]; 1000.0 mg./kg. oral) is listed as 66 ± 5.9% and the Alcoholic intoxication [5] is listed as “shortened”. The Alcoholic narcosis [5] was “shortened”.
For CC(N)Cc1ccccc1 (stereo not shown) [amphetamine], the “Motoric incoordination (ataxia)” value [6] is listed as “prolong the motoric incoordination (ataxia)” and the “Narcotizing effect of alcohol” value [6] is listed as “decrease the narcotizing effect of alcohol”.
For Cn1c(=O)c2c(ncn2C)n(C)c1=O [caffeine], the “Motoric incoordination (ataxia)” value [6] is given as “prolong the motoric incoordination (ataxia)” and the “Narcotizing effect of alcohol” value [6] is given as “decrease the narcotizing effect of alcohol”.
For CC(N)(Cc1ccc(O)cc1)C(=O)O (stereo not drawn) [α-Methyl-p-tyrosine], the “Effect on locomotoric hyperactivity” value ([7]; mice, dose range in which spontaneous locomotor activity is decreased) is listed as “normalizing effect” and the Spontaneous locomotor activity ([7]; same dose range as normalizing effect on hyperactivity) is listed as “decreases the spontaneous locomotor activity”.
